Experimental data from publication PMC12147034, “Identification of alkynyl nicotinamide HSN748 as a RET solvent-front mutant inhibitor with intracranial efficacy” (RSC Medicinal Chemistry, 2025).
Where a chain is given by its changes, count along the chain named.

Experiments:
Assay type in all cases: cell-based
[1] = molecular target: T1, B/KR(G810R) cells, KIF5B-RET G810R (Homo sapiens, UniProt P07949+P33176, G810R); assay: Cell viability assay (CellTiter-Glo, 3 days) in B/KR(G810R) cells
T1 construct: FLAG; expressed in transfected cells; host or cells: BaF3
T1 sequence (P07949 713-1063 G810R limits assumed): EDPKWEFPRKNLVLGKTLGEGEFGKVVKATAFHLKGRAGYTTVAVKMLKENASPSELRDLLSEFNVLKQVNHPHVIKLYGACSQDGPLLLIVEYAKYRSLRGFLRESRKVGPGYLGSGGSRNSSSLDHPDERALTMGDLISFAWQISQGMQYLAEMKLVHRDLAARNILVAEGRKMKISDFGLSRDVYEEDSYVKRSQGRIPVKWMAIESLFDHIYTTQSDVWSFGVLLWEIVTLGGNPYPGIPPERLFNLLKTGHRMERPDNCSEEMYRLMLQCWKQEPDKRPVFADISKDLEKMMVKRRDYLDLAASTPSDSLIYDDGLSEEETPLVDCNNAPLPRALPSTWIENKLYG
Experimental: (§1) BaF3 cell lines expressing a flag-tagged KIF5B-RET (B/KR) and the KIF5B-RET containing G810C, G810R, G810S, V804M, V804L mutations were as reported.[8,13,17,21–23] […] Infected cells were cultured for two weeks, and cells with high GFP intensity were sorted into a 96-well plate (1 cell/well). After the expansion of growing cell lines, they were screened for a high level of luciferase activity by luminescence imaging after exposure to D-luciferin. IMR-90 cells were from ATCC.
(§2) The TEL-VEGFR2 cDNA was then subcloned into pLentP lentiviral vector.[21] and BaF3/TEL-VEGFR2 (B/TV) cells were generated by infecting BaF3 cells with the lentiviral TEL-VEGFR2 as described. Cell viability assay was performed using CellTiter-Glo reagent (G7573, Promega, Madison, WI, USA) after 3 days of drug treatment as described for BaF3-derived cells and 5 days for IMR-90 cells.

[2] = molecular target: T2, BaF3/KIF5B-RET (B/KR) cells, RET WT (Homo sapiens, UniProt P07949+P33176); assay: Cell viability assay (CellTiter-Glo, 3 days) in B/KR cells
T2 construct: FLAG; expressed in transfected cells; host or cells: BaF3
T2 sequence (P33176+P07949 with tags, fused parts or gaps): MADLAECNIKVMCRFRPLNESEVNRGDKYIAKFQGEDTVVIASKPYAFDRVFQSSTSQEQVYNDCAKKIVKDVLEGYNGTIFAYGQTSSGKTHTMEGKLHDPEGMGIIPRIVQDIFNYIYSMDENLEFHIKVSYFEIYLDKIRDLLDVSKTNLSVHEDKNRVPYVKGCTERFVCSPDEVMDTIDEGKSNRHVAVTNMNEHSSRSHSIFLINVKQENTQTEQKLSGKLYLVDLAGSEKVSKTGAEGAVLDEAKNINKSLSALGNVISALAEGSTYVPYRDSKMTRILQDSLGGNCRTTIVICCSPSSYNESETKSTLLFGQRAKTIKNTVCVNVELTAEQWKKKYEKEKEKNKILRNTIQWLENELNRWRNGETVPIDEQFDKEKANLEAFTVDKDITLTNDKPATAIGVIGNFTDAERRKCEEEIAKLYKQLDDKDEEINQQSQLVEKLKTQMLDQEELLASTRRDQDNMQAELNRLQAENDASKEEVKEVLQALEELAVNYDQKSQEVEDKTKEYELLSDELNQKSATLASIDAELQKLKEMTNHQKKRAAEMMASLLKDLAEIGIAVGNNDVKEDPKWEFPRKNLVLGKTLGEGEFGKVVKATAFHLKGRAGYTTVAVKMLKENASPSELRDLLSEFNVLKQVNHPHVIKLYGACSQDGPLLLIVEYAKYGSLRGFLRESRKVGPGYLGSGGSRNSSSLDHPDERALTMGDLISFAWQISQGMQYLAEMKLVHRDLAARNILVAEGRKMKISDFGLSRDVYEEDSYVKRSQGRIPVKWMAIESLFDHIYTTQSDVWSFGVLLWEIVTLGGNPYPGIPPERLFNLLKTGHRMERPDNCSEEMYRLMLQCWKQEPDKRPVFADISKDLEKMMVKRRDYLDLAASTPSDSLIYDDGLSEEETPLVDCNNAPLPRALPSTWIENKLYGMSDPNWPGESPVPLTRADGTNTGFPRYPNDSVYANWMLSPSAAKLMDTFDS
Experimental: as §1, §2

B/KR(G810C/R/S) cells = assay: Cell viability assay, RET solvent-front mutants stated jointly; conditions: read-out: IC50s for B/KR(G810C/R/S) cells; stated jointly for G810C, G810R and G810S
Experimental: as §1, §2

[3] = tested on: KIF5B-RET autophosphorylation in B/KR and mutant cells; assay: Immunoblotting analysis of cell lysates; conditions: Fig. S1A
From the text: Figure S1. Immunoblotting analyses of cell lysates.
(A) Immunoblotting analysis of compounds on inhibition of KR or its mutant kinase activity and
induction of apoptosis in B/KR and mutant cells. (B) Immunoblotting analysis of HSN748-treated
(1 picture or pasted object on this page, not shown here)

[4] = tested on: BaF3/TEL-VEGFR2 (B/TV) cells; assay: Cell viability assay (CellTiter-Glo, 3 days) in B/TV cells; conditions: ratio of B/TV IC50 to B/KR WT IC50
Experimental: as §2

[5] = molecular target: T3, BaF3/TEL-VEGFR2 (B/TV) cells (Homo sapiens, UniProt P35968+P41212); assay: as above; conditions: TEL-VEGFR2-dependent BaF3 cells, 3 days; read-out: IC50 B/TV WT
T3 construct: fused to VEGFR2 (KDR) amino acids 807–1356; TEL (ETV6) amino acids 1–336 (N-terminal fusion partner); FLAG; expressed in transfected cells; host or cells: BaF3 (lentiviral pLentP TEL-VEGFR2)
Experimental: as §2

[6] = molecular target: T4, B/KR(G810C) cells, KIF5B-RET G810C (Homo sapiens, UniProt P07949+P33176, G810C); assay: Cell viability assay (CellTiter-Glo, 3 days) in B/KR(G810C) cells
T4 construct: FLAG; expressed in transfected cells; host or cells: BaF3
T4 sequence (P07949 713-1063 G810C limits assumed): T1 sequence (P07949 713-1063 G810R limits assumed) with R98C
Experimental: as §1, §2

T3 sequence (P41212+P35968 fused): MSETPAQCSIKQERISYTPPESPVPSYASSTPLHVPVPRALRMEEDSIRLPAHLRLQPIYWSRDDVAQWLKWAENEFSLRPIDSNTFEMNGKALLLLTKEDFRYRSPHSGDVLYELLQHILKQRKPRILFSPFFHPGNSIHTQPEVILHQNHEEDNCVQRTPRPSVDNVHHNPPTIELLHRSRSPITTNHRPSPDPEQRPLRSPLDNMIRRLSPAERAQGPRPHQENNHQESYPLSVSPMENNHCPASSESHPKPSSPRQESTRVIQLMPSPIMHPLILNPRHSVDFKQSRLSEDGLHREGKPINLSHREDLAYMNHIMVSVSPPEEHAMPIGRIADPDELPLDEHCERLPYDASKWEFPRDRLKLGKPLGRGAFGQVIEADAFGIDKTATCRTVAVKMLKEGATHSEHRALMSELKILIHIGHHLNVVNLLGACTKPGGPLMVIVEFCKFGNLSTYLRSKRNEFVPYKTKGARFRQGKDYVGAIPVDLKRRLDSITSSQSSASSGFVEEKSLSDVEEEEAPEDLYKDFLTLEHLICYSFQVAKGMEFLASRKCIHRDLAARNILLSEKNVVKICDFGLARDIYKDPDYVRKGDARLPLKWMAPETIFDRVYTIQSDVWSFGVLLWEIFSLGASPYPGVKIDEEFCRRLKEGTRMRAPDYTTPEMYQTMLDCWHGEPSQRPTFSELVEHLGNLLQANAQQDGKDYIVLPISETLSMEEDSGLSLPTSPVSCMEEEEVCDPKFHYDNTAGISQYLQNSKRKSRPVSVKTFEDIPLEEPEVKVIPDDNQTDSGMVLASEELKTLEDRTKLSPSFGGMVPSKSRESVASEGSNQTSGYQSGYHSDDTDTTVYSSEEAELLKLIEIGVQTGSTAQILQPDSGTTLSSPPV

`CN1CCN(Cc2ccc(NC(=O)c3cncc(C#Cc4cnc5cccnn45)c3)cc2C(F)(F)F)CC1` [HSN748] was tested, and the IC50 [1] was 20.6 ± 1.42 nM, the IC50 [2] was 4.05 ± 0.18 nM and the IC50 (B/KR(G810C/R/S) cells) was < 33 nM. For the same compound, the “KIF5B-RET autophosphorylation and apoptosis (immunoblotting)” value [3] was “inhibit KIF5B-RET autophosphorylation and induce apoptosis at low nanomolar concentrations”, the “VEGFR2/RET (fold)” value [4] was 1.81 fold and the IC50 [5] was 7.34 ± 0.09 nM. For the same compound, the IC50 [6] was 7.93 ± 0.33 nM.
`Cc1n[nH]c2ncc(C#Cc3cncc(C(=O)Nc4ccc(CN5CCN(C)CC5)c(C(F)(F)F)c4)c3)cc12` [HSND19, 5-((3-Methyl-1H-pyrazolo[3,4-b]pyridin-5-yl)ethynyl)-N-(4-((4-methylpiperazin-1-yl)methyl)-3-(trifluoromethyl)phenyl)nicotinamide] was tested, and the IC50 [1] was 23.1 ± 1.39 nM, the IC50 [2] was 1.95 ± 0.12 nM and the IC50 (B/KR(G810C/R/S) cells) was < 33 nM. The “KIF5B-RET autophosphorylation and apoptosis (immunoblotting)” value [3] was “inhibit KIF5B-RET autophosphorylation and induce apoptosis at low nanomolar concentrations”, the “VEGFR2/RET (fold)” value [4] was 2.85 fold and the IC50 [5] was 5.56 ± 1.11 nM. It also gave an IC50 [6] of 9.08 ± 1.63 nM.
With `CCOc1ccc2ncc(C#Cc3cncc(C(=O)Nc4ccc(CN5CCN(C)CC5)c(C(F)(F)F)c4)c3)n2n1` [HSND14, 5-((6-Ethoxyimidazo[1,2-b]pyridazin-3-yl)ethynyl)-N-(4-((4-methylpiperazin-1-yl)methyl)-3-(trifluoromethyl)phenyl)nicotinamide] the IC50 [1] was 33 ± 0.67 nM, the IC50 [2] was 4.02 ± 0.19 nM and the IC50 (B/KR(G810C/R/S) cells) was < 33 nM. The “KIF5B-RET autophosphorylation and apoptosis (immunoblotting)” value [3] was “inhibit KIF5B-RET autophosphorylation and induce apoptosis at low nanomolar concentrations”, the “VEGFR2/RET (fold)” value [4] was 1.71 fold and the IC50 [5] was 6.88 ± 0.15 nM. The IC50 [6] was 15.9 ± 0.72 nM.
